From US8716296B2 (Ingenium Pharmaceuticals GmbH, priority 2007, dated 2014)
Counter-ions that a name gives are not always drawn.

Legend:
[1] = test system: LPS induced THP-1 macrophages; experiment: In vitro THP-1 assay, model of cytokine inhibition; format: cell-based, human; settings: differentiated THP-1 cells, 60 min pre-incubation, LPS 4-48 h, ELISA, versus vehicle (DMSO)
Description: The human THP-1 cell line can be utilized as an in vitro model of cytokine expression as mediated by Lipopolysaccharide (LPS) or Tumor Necrosis Factorα [TNFα].
Monocytic THP-1 cells (ATCC; TIB-202) can be differentiated into macrophage-like cells expressing pro-inflammatory cytokines like TNFα, IL6 and IL1β upon induction with LPS or by TNFα (autocrine induction) itself.
THP-1 cells are grown in modified RPMI-1640 medium (ATCC, Cat. No. 30-2001) supplemented with 10% FCS and 1% Pen/Strep. For cytokine inhibition assays, cells are seeded at a density of 5×10^5 cells/ml into 6-well plates in standard growth medium supplemented with 100 ng/ml PMA (Sigma, P1585) to induce differentiation into macrophage-like cells. After 24 hours, the medium is replaced with standard growth medium (without PMA) and the cells are incubated for another 48 hours to complete differentiation.
After 72 h of differentiation, the medium is replaced with serum free growth medium, and CDK-inhibiting compounds as well as reference compounds such as positive and negative controls, each dissolved in DMSO are added at concentrations ranging from 0.5 to 5 μM (final concentration of DMSO in the well is 0.1%). Cells are incubated for 60 min with compounds prior to stimulation with 100 ng/ml LPS (Sigma, L2630) for another 4-48 hours. Supernatants are collected and assayed immediately for cytokine expression, e.g. for TNFα, IL-6 and IL-1b using commercially available sandwich ELISA assays (eBioscience, Cat. No 88-7346, 88-7066, 88-7010) or kept frozen at […] until evaluation.
Concentrations of TNFα, IL6 and IL1β within the cell culture supernatants are measured by using commercial ELISA Kits (eBioscience) according to the manufacturers instructions.
CDK-inhibitory compounds #1A, 16A, 20A, and 25A were administered to differentiated THP-1 cells in triplicates as described above (see section 2.). After 60 min of pre-incubation with test or reference compound (SB203580, a p38 inhibitor and BMS345541, an IKK-inhibitor) alone, cells were stimulated with LPS. After incubation for 4-48 h, supernatants were collected and ELISA based determinations of cytokine supernatant concentrations were performed as described in section 3, supra.

SMILES | melting point [°C] | other results
COc1ccc(F)cc1-c1cc(NC(=O)C2CCCCN2)ncn1 (centres unmarked) (as salt: TFA) [Example 37, N-(6-(5-fluoro-2-methoxyphenyl)pyrimidin-4-yl)piperidine-2-carboxamide*TFA] | 122 | 
CCc1cc(C(=O)Nc2cc(-c3cc(F)ccc3OC)ncn2)no1 [Example 58, 5-ethyl-N-(6-(5-fluoro-2-methoxyphenyl)pyrimidin-4-yl)isoxazole-3-carboxamide] | 175 | 
CCOc1ccc(F)cc1-c1cc(NC(=O)C2CCC(=O)NC2)ncn1 (centres unmarked) [Example 16, N-(6-(2-ethoxy-5-fluorophenyl)pyrimidin-4-yl)-6-oxopiperidine-3-carboxamide] | 208 | 
COc1ccc(F)cc1-c1cc(NC(=O)C(=O)c2ccccc2)ncn1 [Example 61, N-(6-(5-fluoro-2-methoxyphenyl)pyrimidin-4-yl)-2-oxo-2-phenylacetamide] | 146 | 
COc1cc(F)ccc1-c1cc(NC(=O)C2CCC(=O)NC2)ncn1 (centres unmarked) [Example 14, N-(6-(4-fluoro-2-methoxyphenyl)pyrimidin-4-yl)-6-oxopiperidine-3-carboxamide] | 148 | 
CC(C)Oc1cc(F)ccc1-c1cc(NC(=O)C2CCC(=O)NC2)ncn1 (centres unmarked) [Example 25, N-(6-(4-fluoro-2-isopropoxyphenyl)pyrimidin-4-yl)-6-oxopiperidine-3-carboxamide] | 105 | 
CCc1ccc(C(=O)Nc2cc(-c3cc(F)ccc3OC)ncn2)nc1 [Example 56, 5-ethyl-N-(6-(5-fluoro-2-methoxyphenyl)pyrimidin-4-yl)pyridine-2-carboxamide] | 176 | 
COc1ccc(F)cc1-c1cc(NC(=O)C2CCOCC2)ncn1 [Example 39, N-(6-(5-fluoro-2-methoxyphenyl)pyrimidin-4-yl)-tetrahydro-2H-pyran-4-carboxamide] | 155 | 
COc1ccc(F)cc1-c1cc(NC(=O)Cc2cc(F)c(F)cc2F)ncn1 [Example 62, N-(6-(5-fluoro-2-methoxyphenyl)pyrimidin-4-yl)-2-(2,4,5-trifluorophenyl)acetamide] | 208 | 
COc1ccc(F)cc1-c1cc(NC(=O)c2cc(=O)[nH]c3ccccc23)ncn1 [Example 60, N-(6-(5-fluoro-2-methoxyphenyl)pyrimidin-4-yl)-1,2-dihydro-2-oxoquinoline-4-carboxamide] | 276 | 
COc1ccc(F)cc1-c1cc(NC(=O)C2CCC(N)CC2)ncn1 (centres unmarked) (as salt: TFA) [Example 38, 4-amino-N-(6-(5-fluoro-2-methoxyphenyl)pyrimidin-4-yl)cyclohexanecarboxamide*TFA] | 162 | 
COc1ccc(F)cc1-c1cc(NC(=O)C2(C(N)=O)CC2)ncn1 [Example 10, N-(6-(5-fluoro-2-methoxyphenyl)pyrimidin-4-yl)cyclopropane-1,1-dicarboxamide] | 190 | 
COc1ccc(F)cc1-c1cc(NC(=O)c2cc(C)on2)ncn1 [Example 55, N-(6-(5-fluoro-2-methoxyphenyl)pyrimidin-4-yl)-5-methylisoxazole-3-carboxamide] | 170 | 
COc1ccccc1-c1cc(NC(=O)C(C)(C)C)ncn1 [Compound 25A, N-[6-(2-methoxy-phenyl)-pyrimidin-4-yl]-2,2-dimethyl-propionamide] |  | IL6 protein concentration in the cell supernatant [1]: significant inhibitory effect; TNFα protein concentration in the cell supernatant [1]: significant inhibitory effect
COc1ccc(F)cc1-c1cc(NC(=O)C2CCNC(=O)C2)ncn1 (centres unmarked) [Example 40, N-(6-(5-fluoro-2-methoxyphenyl)pyrimidin-4-yl)-2-oxopiperidine-4-carboxamide] | 225 | 
COc1ccc(F)cc1-c1cc(NC(=O)c2cnn3cc(C)cnc23)ncn1 [Example 59, N-(6-(5-fluoro-2-methoxyphenyl)pyrimidin-4-yl)-6-methylpyrazolo[1,5-a]pyrimidine-3-carboxamide] | 265 | 
CCCN1N=C(C(=O)Nc2cc(-c3cc(F)ccc3OC)ncn2)CCC1=O [Example 11, N-(6-(5-fluoro-2-methoxyphenyl)pyrimidin-4-yl)-1,4,5,6-tetrahydro-6-oxo-1-propylpyridazine-3-carboxamide] | 200 | 
COc1ccc(F)cc1-c1cc(NC(=O)C2CCCNC2=O)ncn1 (centres unmarked) [Example 41, N-(6-(5-fluoro-2-methoxyphenyl)pyrimidin-4-yl)-2-oxopiperidine-3-carboxamide] | 180 | 
COc1ccccc1-c1cc(NC(=O)[C@@H]2CCCNC2)ncn1 [Compound 18A, (R)-Piperidine-3-carboxylic acid [6-(2-methoxy-phenyl)-pyrimidin-4-yl]-amide] | 210 to 213 | 
COc1ccc(F)cc1-c1cc(NC(=O)[C@H]2CCCC[C@H]2N)ncn1.Cl [Example 46, (1S,2R)-2-amino-N-(6-(5-fluoro-2-methoxyphenyl)pyrimidin-4-yl)cyclohexanecarboxamide*HCl] | 272 | 
COc1ccc(F)cc1-c1cc(NC(=O)C2CC(=O)NC(=O)C2)ncn1 [Example 19, N-(6-(5-fluoro-2-methoxyphenyl)pyrimidin-4-yl)-2,6-dioxopiperidine-4-carboxamide] | 160 | 
CCOc1cc(F)ccc1-c1cc(NC(=O)C2CCC(=O)NC2)ncn1 (centres unmarked) [Example 24, N-(6-(2-ethoxy-4-fluorophenyl)pyrimidin-4-yl)-6-oxopiperidine-3-carboxamide] | 222 | 
CC(C)Oc1ccc(F)cc1-c1cc(NC(=O)C2CCC(=O)NC2)ncn1 (centres unmarked) [Example 26, N-(6-(5-fluoro-2-isopropoxyphenyl)pyrimidin-4-yl)-6-oxopiperidine-3-carboxamide] | 236 | 
CCOc1ccccc1-c1cc(NC(=O)C2CCC(=O)NC2)ncn1 (centres unmarked) [Example 15, N-(6-(2-ethoxyphenyl)pyrimidin-4-yl)-6-oxopiperidine-3-carboxamide] | 117 | 
COc1ccc(F)cc1-c1cc(NC(=O)C2CCC(=O)NC2)ncn1 (centres unmarked) [Example 17, N-(6-(5-fluoro-2-methoxyphenyl)pyrimidin-4-yl)-6-oxopiperidine-3-carboxamide] | 245 | 
COc1ccc(F)cc1-c1cc(NC(=O)C2CNC(=O)C2)ncn1 (centres unmarked) [Example 18, N-(6-(5-fluoro-2-methoxyphenyl)pyrimidin-4-yl)-5-oxopyrrolidine-3-carboxamide] | 222 | 
COc1ccccc1-c1cc(NC(=O)C2CCCNC2)nc(C)n1 (centres unmarked) [Compound 22A, piperidine-3-carboxylic acid [6-(2-methoxy-phenyl)-2-methyl-pyrimidin-4-yl]-amide] | 229 to 230 | 
COc1ccccc1-c1cc(NC(=O)[C@H]2CCCNC2)ncn1 [Compound 17A, (S)-Piperidine-3-carboxylic acid [6-(2-methoxy-phenyl)-pyrimidin-4-yl]-amide] | 163 to 165 | 
